6 molecules from the supplement of paper PMC11061612 can be followed below.

Holding throughout (assay): combination Emax (second highest fraction inhibited in the dose matrix, 72 h); higher = more inhibition; extreme values may be limits of the assay
Test [1] deals with 697 (B-Lymphoblastic Leukemia). The method in brief:
(§1)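 Bliss excess equals the observed combination effect minus the expected value EA + EB − EA·EB, where EA and EB are the effects of each agent alone. Combination Emax is the second-highest inhibition within the matrix. Inhibition was scaled from CellTiter-Glo 2.0 luminescence, with 0 set by vehicle wells and 1 by blank wells, after 72 hours of two-drug dosing of cells plated in 1536-well plates.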

The test system of test [2] is CFPAC-1 (Pancreatic Carcinoma). Put shortly: as §1
Test [3] relates to DOV13 (Ovarian Carcinoma). The method in brief:
as §1

The test system of another test is ES7 (Ewing's Sarcoma). The method in brief:
as §1

For test [4], the system named is G-292-Clone-A141B1 (Osteosarcoma). The method in brief: as §1
The subject of test [5] is HCC2157 (Breast Carcinoma). Put shortly:
as §1

The test system of another test is IGR-1 (Melanoma). The method in brief:
as §1

The subject of test [6] is IHH-4 (Thyroid Gland Carcinoma). The method in brief: as §1
Test [7] deals with KARPAS-1106P (B-Cell Non-Hodgkin's Lymphoma). The method in brief:
as §1

For test [8], the system named is KARPAS-620 (Plasma Cell Myeloma). Put shortly:
as §1

The subject of test [9] is LS-513 (Colorectal Carcinoma). Put shortly:
as §1

The test system of test [10] is LU-99A (Non-Small Cell Lung Carcinoma). The method in brief: as §1
The subject of test [11] is NCI-H1793 (Lung Adenocarcinoma). The method in brief: as §1
For a further test, the system named is NCI-H2369 (Mesothelioma). Put shortly: as §1
A further test has as its system RH-1 (Ewing's Sarcoma). The method in brief:
as §1

In the next test the test system is SN12C (Kidney Carcinoma). Put shortly: as §1
For test [12], the system named is SUIT-2 (Pancreatic Carcinoma). The method in brief: as §1
Test [13] relates to SW1088 (Low Grade Glioma). Put shortly: as §1
Test [14] has as its system SW780 (Bladder Carcinoma). The method in brief: as §1
Test [15] concerns TGBC24TKB (Biliary Tract Carcinoma). The method in brief: as §1

For `COc1cccc(OCCCN)c1-c1cc(Nc2cnc(C#N)cn2)n[nH]1` [Prexasertib] + Cc1cc2ncnn2cc1Nc1ncc2c(n1)n(C1CCOCC1)c(=O)n2C [AZD7648] (first compound max 1 µM, 7x7, partner max 10 µM), the “combination Emax” value worked out at 1 in test [1]; 0.692 in test [2]; 0.914 in [3]; 0.876 with ES7 (Ewing's Sarcoma); 0.295 in [4]; 0.958 in test [5]. Also, the “combination Emax” value in the test on IGR-1 (Melanoma) amounted to 0.508; in test [6] it was 0.947; in [7] it was 0.909; in test [8], 0.817; in test [9], 0.848; in [10] it was 0.804. Besides, the “combination Emax” value amounted to 0.432 in test [11]; 0.253 with NCI-H2369 (Mesothelioma); 1 in the test on RH-1 (Ewing's Sarcoma); 0.387 in the test with SN12C (Kidney Carcinoma); 0.739 in test [12]; 0.762 in [13]. In addition, the “combination Emax” value was 0.26 in [14] and 0.827 in test [15].

Take `COc1nnc2ccc(N3CCC(c4ccc(OCCN5CCN(C)C(=O)[C@H]5C)cc4)CC3)nn12` [AZD5153] + CC1(C)CCC(CN2CCN(c3ccc(C(=O)NS(=O)(=O)c4ccc(NCC5CCOCC5)c([N+](=O)[O-])c4)c(Oc4cnc5[nH]ccc5c4)c3)CC2)=C(c2ccc(Cl)cc2)C1 [Venetoclax] (first compound max 1 µM, 7x7, partner max 1 µM): the “combination Emax” value came to 1 in test [1]; 0.416 in test [2]; 0.477 in test [3]; 0.565 in the test on ES7 (Ewing's Sarcoma); 0.256 in test [4]; 1 in test [5]. The “combination Emax” value came to 0.433 in the test on IGR-1 (Melanoma); 0.498 in test [6]; 0.761 in test [7]; 0.927 in test [8]; 0.568 in test [9]; 0.456 in test [10]. For the same molecule, the “combination Emax” value worked out at 0.248 in [11]; 0.327 in the test on NCI-H2369 (Mesothelioma); 0.334 in the test on RH-1 (Ewing's Sarcoma); 0.318 in the test with SN12C (Kidney Carcinoma); 0.371 in test [12]; 0.471 in test [13]. The results for the “combination Emax” value in test [14] and in test [15] were 0.375 and 0.642, respectively.

Take `C[C@@H](c1ccc2nccn2c1)n1nnc2ncc(-c3cnn(C)c3)nc21` [Savolitinib] + CC1(C)CCC(CN2CCN(c3ccc(C(=O)NS(=O)(=O)c4ccc(NCC5CCOCC5)c([N+](=O)[O-])c4)c(Oc4cnc5[nH]ccc5c4)c3)CC2)=C(c2ccc(Cl)cc2)C1 [Venetoclax] (first compound max 1 µM, 7x7, partner max 1 µM): the “combination Emax” value in test [1] was 1; in test [2], 0.0889; in test [3], 0.143; in the test with ES7 (Ewing's Sarcoma), 0.177; in [4] it was 0.0932; in test [5] it was 0.186. Moreover, the “combination Emax” value in the test on IGR-1 (Melanoma) was 0.114; in test [6] it was 0.0656; in test [7] it was 0.2; in test [8], 0.776; in test [9] it was 0.0791; in [10], 0.0525. In addition, the “combination Emax” value in test [11] stood at 0.193; in the test on NCI-H2369 (Mesothelioma) it was 0.096; in the test on RH-1 (Ewing's Sarcoma) it was 0.0824; with SN12C (Kidney Carcinoma), 0.219; in test [12] it was 0.168; in test [13], 0.224. In addition, the figures for the “combination Emax” value in test [14] and in test [15] were 0.11 and 0.215, respectively.

On to `CC1(C)CCC(CN2CCN(c3ccc(C(=O)NS(=O)(=O)c4ccc(NCC5CCOCC5)c([N+](=O)[O-])c4)c(Oc4cnc5[nH]ccc5c4)c3)CC2)=C(c2ccc(Cl)cc2)C1` [Venetoclax] + C[C@@H]1COCCN1C2=NC(=NC(=C2)C3(CC3)[S@](=N)(=O)C)C4=C5C=CNC5=NC=C4 [AZD6738] (first compound max 1 µM, 7x7, partner max 10 µM), for which the “combination Emax” value in test [1] turned out to be 1; in test [2] it was 0.554; in [3] it was 0.91; in the test on ES7 (Ewing's Sarcoma) it was 0.941; in test [4], 0.344; in test [5] it was 0.877. Further, the “combination Emax” value came to 0.675 in the test with IGR-1 (Melanoma); 0.691 in test [6]; 0.688 in test [7]; 0.996 in test [8]; 0.677 in test [9]; 0.619 in test [10]. In addition, the “combination Emax” value in [11] is 0.508; with NCI-H2369 (Mesothelioma), 0.233; with RH-1 (Ewing's Sarcoma), 0.959; in the test on SN12C (Kidney Carcinoma), 0.287; in [12], 0.471; in test [13] it was 0.684. For the same molecule, the “combination Emax” value came out at 0.22 in [14] and 0.705 in test [15].

Regarding `CN(C)CCCOc1ccc(-c2ccc3ncc4c(c3c2)n(C2CCOCC2)c(=O)n4C)cn1` [AZD0156] + C=CCn1c(=O)c2cnc(Nc3ccc(N4CCN(C)CC4)cc3)nc2n1-c1cccc(C(C)(C)O)n1 [AZD1775] (first compound max 1 µM, partner max 1 µM), the “combination Emax” value in test [1] came to 1; in test [2] it was 0.473; in test [3], 0.814; in the test on ES7 (Ewing's Sarcoma), 0.542; in [4], 0.197; in test [5], 0.832. The “combination Emax” value with IGR-1 (Melanoma) was 0.223; in test [6], 0.821; in test [7] it was 0.874; in [8], 0.511; in test [9], 0.827; in [10] it was 0.677. The “combination Emax” value amounted to 0.387 in [11]; 0.207 in the test on NCI-H2369 (Mesothelioma); 1 in the test on RH-1 (Ewing's Sarcoma); 0.242 in the test on SN12C (Kidney Carcinoma); 0.619 in [12]; 0.425 in test [13]. Moreover, the “combination Emax” value stood at 0.124 in test [14] and 0.677 in test [15].

Take `C[C@@H](c1ccc2nccn2c1)n1nnc2ncc(-c3cnn(C)c3)nc21` [Savolitinib] + Cc1c2c(nn1C)CSCc1cc(n(C)n1)CSc1cc(c3ccccc3c1)OCCCc1c(C(=O)O)n(C)c3c-2c(Cl)ccc13 [AZD5991] (first compound max 1 µM, 7x7, partner max 1 µM): the “combination Emax” value in [1] amounted to 1; in [2], 0.115; in test [3] it was 0.153; in the test on ES7 (Ewing's Sarcoma), 0.554; in test [4], 0.138; in [5], 0.978. Besides, the “combination Emax” value worked out at 0.223 in the test with IGR-1 (Melanoma); 0.0909 in test [6]; 0.734 in test [7]; 0.997 in [8]; 0.155 in test [9]; 0.134 in test [10]. Also, the “combination Emax” value was 0.173 in test [11]; 0.116 in the test on NCI-H2369 (Mesothelioma); 0.518 in the test on RH-1 (Ewing's Sarcoma); 0.197 in the test on SN12C (Kidney Carcinoma); 0.208 in test [12]; 0.261 in [13]. Also, the entries for the “combination Emax” value in test [14] and in test [15] were 0.164 and 0.182, respectively.
